SMILES strings stand for the structures. Read-outs that look alike come from different tables or passages of the source.

Experimental findings from publication PMC11864979, “First-in-class ultralong-target-residence-time p38α inhibitors as a mitosis-targeted therapy for colorectal cancer” (Nature Cancer, 2025) are described below.

Assay in all cases: selectivity profiling in a panel of 340 wild-type kinases (Reaction Biology Europe)
Holding throughout (assay type): binding

Assay [1] deals with T1, 340 wild-type kinases (Homo sapiens, UniProt O14733).
T1 construct: purchased Reaction Biology Europe
T1 sequence (O14733 1-419): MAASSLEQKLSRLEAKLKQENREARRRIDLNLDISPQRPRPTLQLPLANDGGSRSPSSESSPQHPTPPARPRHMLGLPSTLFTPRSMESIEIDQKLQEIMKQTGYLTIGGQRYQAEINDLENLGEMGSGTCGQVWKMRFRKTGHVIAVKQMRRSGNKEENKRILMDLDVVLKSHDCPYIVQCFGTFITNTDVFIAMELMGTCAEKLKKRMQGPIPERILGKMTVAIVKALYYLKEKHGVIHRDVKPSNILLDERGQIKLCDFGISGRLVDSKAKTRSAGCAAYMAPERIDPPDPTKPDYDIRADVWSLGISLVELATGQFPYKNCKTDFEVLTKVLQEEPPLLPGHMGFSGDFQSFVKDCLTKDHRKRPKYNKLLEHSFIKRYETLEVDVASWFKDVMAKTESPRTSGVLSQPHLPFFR

Assay [2] has as its target T2, 340 wild-type kinases (Homo sapiens, UniProt P25098).
T2 construct: purchased Reaction Biology Europe
T2 sequence (P25098 1-689): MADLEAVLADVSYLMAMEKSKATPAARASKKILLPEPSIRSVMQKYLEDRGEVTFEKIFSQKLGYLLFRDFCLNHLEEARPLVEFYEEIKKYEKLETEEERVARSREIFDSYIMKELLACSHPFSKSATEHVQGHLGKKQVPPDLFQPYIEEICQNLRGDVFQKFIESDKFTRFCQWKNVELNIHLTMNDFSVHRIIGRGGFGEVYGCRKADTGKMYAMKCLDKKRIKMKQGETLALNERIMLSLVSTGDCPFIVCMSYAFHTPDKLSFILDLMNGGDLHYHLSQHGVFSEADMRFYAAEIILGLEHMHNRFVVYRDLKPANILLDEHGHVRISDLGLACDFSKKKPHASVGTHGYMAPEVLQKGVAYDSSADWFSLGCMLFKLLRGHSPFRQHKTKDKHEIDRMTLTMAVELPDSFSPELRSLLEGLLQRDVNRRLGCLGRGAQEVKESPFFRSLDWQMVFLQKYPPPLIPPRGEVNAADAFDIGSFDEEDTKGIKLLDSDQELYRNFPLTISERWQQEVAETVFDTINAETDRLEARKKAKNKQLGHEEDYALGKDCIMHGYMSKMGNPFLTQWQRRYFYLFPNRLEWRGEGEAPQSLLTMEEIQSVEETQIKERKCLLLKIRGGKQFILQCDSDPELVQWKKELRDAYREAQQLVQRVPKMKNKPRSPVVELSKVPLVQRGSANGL

Assay [3] addresses T3, 340 wild-type kinases (Homo sapiens, UniProt P29317).
T3 construct: purchased Reaction Biology Europe

For assay [4], the target named is T4, 340 wild-type kinases (Homo sapiens, UniProt P42681).
T4 construct: purchased Reaction Biology Europe
T4 sequence (P42681 1-527): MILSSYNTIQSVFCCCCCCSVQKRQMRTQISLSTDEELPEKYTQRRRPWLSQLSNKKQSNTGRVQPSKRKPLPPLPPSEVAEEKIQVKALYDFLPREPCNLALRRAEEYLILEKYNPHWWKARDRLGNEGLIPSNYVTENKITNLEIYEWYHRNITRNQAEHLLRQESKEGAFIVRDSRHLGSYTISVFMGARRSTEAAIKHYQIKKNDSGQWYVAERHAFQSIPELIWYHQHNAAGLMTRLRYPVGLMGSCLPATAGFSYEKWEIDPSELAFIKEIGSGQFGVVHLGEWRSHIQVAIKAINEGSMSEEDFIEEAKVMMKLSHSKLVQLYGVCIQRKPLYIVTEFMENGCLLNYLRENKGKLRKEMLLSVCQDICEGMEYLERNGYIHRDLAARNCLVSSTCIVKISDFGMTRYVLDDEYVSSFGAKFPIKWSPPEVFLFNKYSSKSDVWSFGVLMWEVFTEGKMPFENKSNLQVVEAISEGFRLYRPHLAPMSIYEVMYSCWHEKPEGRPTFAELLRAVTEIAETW

In assay [5] the target is T5, 340 wild-type kinases (Homo sapiens, UniProt Q00537).
T5 construct: purchased Reaction Biology Europe

Assay [6] concerns the target T6, 340 wild-type kinases (Homo sapiens, UniProt Q9UHD2).
T6 construct: purchased Reaction Biology Europe
T6 sequence (Q9UHD2 1-729): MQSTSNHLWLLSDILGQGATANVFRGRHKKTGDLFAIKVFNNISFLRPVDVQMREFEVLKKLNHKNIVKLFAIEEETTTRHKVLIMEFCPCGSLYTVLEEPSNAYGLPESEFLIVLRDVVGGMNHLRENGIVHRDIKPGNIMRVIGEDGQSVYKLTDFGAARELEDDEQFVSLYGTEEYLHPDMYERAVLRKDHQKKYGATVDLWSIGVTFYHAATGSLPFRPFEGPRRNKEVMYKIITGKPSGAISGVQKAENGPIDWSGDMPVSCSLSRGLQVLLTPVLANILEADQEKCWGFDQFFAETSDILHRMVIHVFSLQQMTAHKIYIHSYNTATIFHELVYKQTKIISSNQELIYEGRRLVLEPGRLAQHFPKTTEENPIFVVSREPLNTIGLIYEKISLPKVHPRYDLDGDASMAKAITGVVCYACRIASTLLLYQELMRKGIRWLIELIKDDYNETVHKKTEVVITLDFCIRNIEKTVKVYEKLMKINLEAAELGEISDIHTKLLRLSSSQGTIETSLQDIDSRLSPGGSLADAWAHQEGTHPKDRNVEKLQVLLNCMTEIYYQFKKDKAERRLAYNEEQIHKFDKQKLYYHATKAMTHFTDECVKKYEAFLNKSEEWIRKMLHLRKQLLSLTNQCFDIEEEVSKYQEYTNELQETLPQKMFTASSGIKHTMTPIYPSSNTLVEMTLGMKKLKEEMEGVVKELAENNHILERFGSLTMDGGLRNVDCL

T5 sequence (Q00537 whole entry): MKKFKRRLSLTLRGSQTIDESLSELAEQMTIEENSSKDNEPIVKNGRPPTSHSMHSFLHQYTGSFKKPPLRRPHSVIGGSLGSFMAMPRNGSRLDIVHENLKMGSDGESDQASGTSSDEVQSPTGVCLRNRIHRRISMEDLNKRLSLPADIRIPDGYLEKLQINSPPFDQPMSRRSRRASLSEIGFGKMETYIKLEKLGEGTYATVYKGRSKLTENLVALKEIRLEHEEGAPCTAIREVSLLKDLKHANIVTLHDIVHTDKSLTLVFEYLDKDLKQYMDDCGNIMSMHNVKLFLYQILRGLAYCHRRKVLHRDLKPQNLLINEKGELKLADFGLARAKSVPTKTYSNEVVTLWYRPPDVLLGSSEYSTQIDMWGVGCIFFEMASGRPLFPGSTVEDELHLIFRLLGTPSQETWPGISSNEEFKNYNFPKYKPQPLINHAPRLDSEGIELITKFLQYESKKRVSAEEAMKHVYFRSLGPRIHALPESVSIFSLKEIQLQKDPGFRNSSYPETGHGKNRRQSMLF
T3 sequence (P29317 24-976): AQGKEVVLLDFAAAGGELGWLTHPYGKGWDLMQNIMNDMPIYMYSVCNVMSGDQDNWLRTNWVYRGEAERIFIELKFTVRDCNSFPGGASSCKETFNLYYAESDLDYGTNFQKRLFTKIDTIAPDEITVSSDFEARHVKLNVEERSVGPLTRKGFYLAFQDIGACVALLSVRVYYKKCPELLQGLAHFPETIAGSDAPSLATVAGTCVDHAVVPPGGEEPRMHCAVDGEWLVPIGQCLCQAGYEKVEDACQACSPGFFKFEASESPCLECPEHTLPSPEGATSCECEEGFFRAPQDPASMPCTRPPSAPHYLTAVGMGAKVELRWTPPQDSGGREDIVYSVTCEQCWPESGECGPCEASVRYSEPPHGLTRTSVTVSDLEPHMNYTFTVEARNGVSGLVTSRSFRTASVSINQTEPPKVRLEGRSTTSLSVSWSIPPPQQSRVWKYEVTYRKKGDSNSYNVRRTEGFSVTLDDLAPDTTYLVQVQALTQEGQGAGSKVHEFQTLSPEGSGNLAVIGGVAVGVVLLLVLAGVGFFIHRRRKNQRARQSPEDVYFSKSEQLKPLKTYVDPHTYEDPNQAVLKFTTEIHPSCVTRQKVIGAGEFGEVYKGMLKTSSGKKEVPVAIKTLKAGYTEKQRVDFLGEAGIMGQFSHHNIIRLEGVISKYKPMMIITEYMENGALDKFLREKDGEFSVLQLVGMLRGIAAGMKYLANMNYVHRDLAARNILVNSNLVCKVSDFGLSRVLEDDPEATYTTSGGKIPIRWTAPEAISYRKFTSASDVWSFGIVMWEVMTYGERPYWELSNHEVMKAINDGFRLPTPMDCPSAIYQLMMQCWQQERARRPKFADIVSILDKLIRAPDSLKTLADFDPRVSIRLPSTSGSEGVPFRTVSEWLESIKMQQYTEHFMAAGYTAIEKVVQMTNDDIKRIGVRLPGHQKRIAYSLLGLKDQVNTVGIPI

On to `CNC(=O)c1ccc2c(c1)C(=O)c1ccc(Nc3ccc(F)c(NC(=O)C4CC4)c3)cc1CC2` [Compound 2015], for which the remaining activity at 0.2 µM in assay [1] (0.2 µM 2015, read-out: MKK7 residual activity) was 102%; in assay [1] (MKK7, 0.2 µM, read-out: residual activity), 102%; in assay [2] (0.2 µM 2015, read-out: GRK2 residual activity), 89.1%; in assay [2] (GRK2, 0.2 µM, read-out: residual activity), 89.2%; in assay [3] (0.2 µM 2015, read-out: EPHA2 residual activity), 98.4%; in assay [3] (EPHA2, 0.2 µM, read-out: residual activity) it was 98.4%. Moreover, the remaining activity at 0.2 µM in assay [4] (0.2 µM 2015, read-out: TXK residual activity) amounted to 94.2%; in assay [4] (TXK, 0.2 µM, read-out: residual activity), 94.2%; in assay [5] (0.2 µM 2015, read-out: CDK17/p35NCK residual activity), 94.8%; in assay [6] (0.2 µM 2015, read-out: TBK1 residual activity), 120%; in assay [6] (TBK1, 0.2 µM, read-out: residual activity) it was 120%. The remaining activity at 1 µM turned out to be 117% in assay [1] (1 µM 2015, read-out: MKK7 residual activity); 117% in assay [1] (MKK7, 1 µM, read-out: residual activity); 80.8% in assay [2] (GRK2, 1 µM, read-out: residual activity); 102% in assay [3] (1 µM 2015, read-out: EPHA2 residual activity); 102% in assay [3] (EPHA2, 1 µM, read-out: residual activity); 90% in assay [4] (1 µM 2015, read-out: TXK residual activity). Also, the remaining activity at 1 µM in assay [4] (TXK, 1 µM, read-out: residual activity) worked out at 90%; in assay [5] (1 µM 2015, read-out: CDK17/p35NCK residual activity), 93.6%; in assay [5] (CDK17/p35NCK, 1 µM, read-out: residual activity) it was 93.6%; in assay [6] (1 µM 2015, read-out: TBK1 residual activity), 101%; in assay [6] (TBK1, 1 µM, read-out: residual activity), 101%.
